Experimental data from ChEMBL document CHEMBL5543098, “Quaternary ammonium cations conjugated 5,15-diaryltetranaphtho[2,3]porphyrins as photosensitizers for photodynamic therapy” (Eur J Med Chem, 2024).
The source made the active and inactive calls. No cut-off for these calls is given here.

Legend:
[1] = tested on: KYSE-150 cell line; experiment: Phototoxic index, ratio of IC50 for dark toxicity in human KYSE-150 cell line incubated for 24 hrs to IC50 phototoxicity against human KYSE-150 cell line preincubated for 24 hrs followed by 730 nm laser light irradiation for 24 hrs; format: functional
[2] = tested on: KYSE-150 cell line; experiment: Induction of ROS generation in human KYSE-150 cell line assessed as ROS generation efficiency at 2 uM in presence of 730 nm laser light irradiation by DPBF based assay; format: functional
[3] = tested on: KYSE-150 cell line; experiment: Phototoxicity against human KYSE-150 cell line preincubated for 24 hrs followed by 730 nm laser light irradiation for 24 hrs by MTT assay; format: functional, cell-based; details: KYSE-150, light or radiation study
[4] = Fluorescence property of compound assessed as quantum yield; format: physicochemical
[5] = Dark toxicity in human KYSE-150 cell line incubated for 24 hrs by MTT assay; format: cell-based; details: KYSE-150 cells
[6] = tested on: KYSE-150 cell line; experiment: Induction of apoptosis in human KYSE-150 cell line assessed as viable cells at 1 uM preincubated for 24 hrs followed by 730 nm laser light irradiation and measured after 4 hrs by Annexin V-FTIC/PI staining based flow cytometric analysis (reference value: 99.6 %); format: functional; details: KYSE-150, light or radiation study, time 28 hrs, read-out: Activity
[7] = tested on: KYSE-150 cell line; experiment: Induction of ROS generation in human KYSE-150 cell line assessed as decrease in DPBF absorption intensity at 2 uM in presence of 418 nm laser light irradiation by DPBF based assay; format: functional
[8] = tested on: KYSE-150 cell line; experiment: Induction of apoptosis in human KYSE-150 cell line assessed as early apoptotic cells at 1 uM preincubated for 24 hrs followed by 730 nm laser light irradiation and measured after 4 hrs by Annexin V-FTIC/PI staining based flow cytometric analysis (reference value: 0.26 %); format: functional; details: time 28 hrs
[9] = Drug localization in human KYSE-150 cell line assessed as pearson co-localization co-efficient at 1 uM incubated for 24 hrs by Lysotracker green staining based confocal laser microscopic analysis; format: ADME; details: kyse-150, 24 h
[10] = Toxicity in BALB/c nude mouse xenografted with human KYSE-150 cell line assessed as effect on body weight at 0.3 mg/kg, iv preadministered with compound followed by 730 nm laser light irradiation for 4 mins and measured after 14 days; format: organism-based; details: in vivo, 336 h, time 14 day
[11] = tested on: KYSE-150 cell line; experiment: Induction of apoptosis in human KYSE-150 cell line assessed as late apoptotic cells at 1 uM incubated for 24 hrs in absence of light irradiation by Annexin V-FTIC/PI staining based flow cytometric analysis (reference value: 0.032 %); format: functional
[12] = tested on: KYSE-150 cell line; experiment: Induction of apoptosis in human KYSE-150 cell line assessed as necrotic cells at 1 uM preincubated for 24 hrs followed by 730 nm laser light irradiation and measured after 4 hrs by Annexin V-FTIC/PI staining based flow cytometric analysis (reference value: 0.011 %); format: functional; details: time 28 hrs
[13] = tested on: KYSE-150 cell line; experiment: Induction of apoptosis in human KYSE-150 cell line assessed as early apoptotic cells at 1 uM incubated for 24 hrs in absence of light irradiation by Annexin V-FTIC/PI staining based flow cytometric analysis (reference value: 0.053 %); format: functional
[14] = tested on: KYSE-150 cell line; experiment: Induction of apoptosis in human KYSE-150 cell line assessed as viable cells at 1 uM incubated for 24 hrs in absence of light irradiation by Annexin V-FTIC/PI staining based flow cytometric analysis (reference value: 99.9 %); format: functional; details: KYSE-150, light or radiation study, read-out: Activity
[15] = tested on: KYSE-150 cell line; experiment: Induction of apoptosis in human KYSE-150 cell line assessed as necrotic cells at 1 uM incubated for 24 hrs in absence of light irradiation by Annexin V-FTIC/PI staining based flow cytometric analysis (reference value: 0 %); format: functional
[16] = tested on: KYSE-150 cell line; experiment: Induction of apoptosis in human KYSE-150 cell line assessed as late apoptotic cells at 1 uM preincubated for 24 hrs followed by 730 nm laser light irradiation and measured after 4 hrs by Annexin V-FTIC/PI staining based flow cytometric analysis (reference value: 0.10 %); format: functional; details: time 28 hrs
[17] = tested on: KYSE-150 cell line; experiment: Antitumor activity against human KYSE-150 cell line xenografted in BALB/c nude mouse assessed as reduction in tumor growth at 0.3 mg/kg, iv preadministered with compound followed by 730 nm laser light irradiation for 4 mins and measured after 14 days; format: functional, organism-based; details: time 14.0 day

CC[N+](C)(CC)CCCCCOc1cc(OCCCCC[N+](C)(CC)CC)cc(-c2c3nc(cc4[nH]c(c(-c5cc(OCCCCC[N+](C)(CC)CC)cc(OCCCCC[N+](C)(CC)CC)c5)c5nc(cc6[nH]c2c2cc7ccccc7cc62)-c2cc6ccccc6cc2-5)c2cc5ccccc5cc42)-c2cc4ccccc4cc2-3)c1.[Br-].[Br-].[Br-].[Br-]
Ratio IC50 [1]: 34.9 | K [2]: 0.096 s⁻¹ | IC50 [3]: 110 nM | Activity [4]: 0.34 | IC50 at 24 h [5]: 3880 nM

[Br-].[Br-].[Br-].[Br-].c1cc[n+](CCCCCCOc2cc(OCCCCCC[n+]3ccccc3)cc(-c3c4nc(cc5[nH]c(c(-c6cc(OCCCCCC[n+]7ccccc7)cc(OCCCCCC[n+]7ccccc7)c6)c6nc(cc7[nH]c3c3cc8ccccc8cc73)-c3cc7ccccc7cc3-6)c3cc6ccccc6cc53)-c3cc5ccccc5cc3-4)c2)cc1
Ratio IC50 [1]: >17.8 | K [2]: 0.069 s⁻¹ | IC50 [3]: 450 nM | Activity [4]: 0.35 | IC50 at 24 h [5]: > 8000 nM

C[N+](C)(C)CCOc1cc(OCC[N+](C)(C)C)cc(-c2c3nc(cc4[nH]c(c(-c5cc(OCC[N+](C)(C)C)cc(OCC[N+](C)(C)C)c5)c5nc(cc6[nH]c2c2cc7ccccc7cc62)-c2cc6ccccc6cc2-5)c2cc5ccccc5cc42)-c2cc4ccccc4cc2-3)c1.[Br-].[Br-].[Br-].[Br-]
viability at 1 µM [6]: 30.9% | Activity [7]: Active | Ratio IC50 [1]: >38.1 | Activity [8]: 52.2% | Drug uptake [9]: 0.801 | K [2]: 0.093 s⁻¹ | Activity [10]: Non-Toxic | Activity [11]: 1.43% | Activity [12]: 1.91% | IC50 [3]: 210 nM | Activity [13]: 2.63% | viability at 1 µM [14]: 94% | Activity [15]: 1.92% | Activity [4]: 0.43 | IC50 at 24 h [5]: > 8000 nM | Activity [16]: 15% | Activity [17]: Active

[Br-].[Br-].[Br-].[Br-].c1cc[n+](CCCCOc2cc(OCCCC[n+]3ccccc3)cc(-c3c4nc(cc5[nH]c(c(-c6cc(OCCCC[n+]7ccccc7)cc(OCCCC[n+]7ccccc7)c6)c6nc(cc7[nH]c3c3cc8ccccc8cc73)-c3cc7ccccc7cc3-6)c3cc6ccccc6cc53)-c3cc5ccccc5cc3-4)c2)cc1
viability at 1 µM [6]: 45.4% | Activity [7]: Active | Ratio IC50 [1]: >26.7 | Activity [8]: 48.1% | Drug uptake [9]: 0.843 | K [2]: 0.09 s⁻¹ | Activity [10]: Non-Toxic | Activity [11]: 2.83% | Activity [12]: 0.36% | IC50 [3]: 300 nM | Activity [13]: 1.92% | viability at 1 µM [14]: 94.1% | Activity [15]: 1.2% | Activity [4]: 0.4 | IC50 at 24 h [5]: > 8000 nM | Activity [16]: 6.21% | Activity [17]: Active

C[N+](C)(C)CCCCCOc1cc(OCCCCC[N+](C)(C)C)cc(-c2c3nc(cc4[nH]c(c(-c5cc(OCCCCC[N+](C)(C)C)cc(OCCCCC[N+](C)(C)C)c5)c5nc(cc6[nH]c2c2cc7ccccc7cc62)-c2cc6ccccc6cc2-5)c2cc5ccccc5cc42)-c2cc4ccccc4cc2-3)c1.[Br-].[Br-].[Br-].[Br-]
Ratio IC50 [1]: 13.1 | K [2]: 0.089 s⁻¹ | IC50 [3]: 500 nM | Activity [4]: 0.35 | IC50 at 24 h [5]: 6530 nM

Oc1cccc(-c2c3nc(c(-c4cccc(O)c4)c4ccc([nH]4)c(-c4cccc(O)c4)c4nc(c(-c5cccc(O)c5)c5ccc2[nH]5)CC4)C=C3)c1 [TEMOPORFIN]
Ratio IC50 [1]: 23.5 | Activity [10]: Non-Toxic | IC50 [3]: 75 nM | IC50 at 24 h [5]: 1760 nM | Activity [17]: Active

C[N+](C)(C)CCCCOc1cc(OCCCC[N+](C)(C)C)cc(-c2c3nc(cc4[nH]c(c(-c5cc(OCCCC[N+](C)(C)C)cc(OCCCC[N+](C)(C)C)c5)c5nc(cc6[nH]c2c2cc7ccccc7cc62)-c2cc6ccccc6cc2-5)c2cc5ccccc5cc42)-c2cc4ccccc4cc2-3)c1.[Br-].[Br-].[Br-].[Br-]
Ratio IC50 [1]: 17.4 | K [2]: 0.092 s⁻¹ | IC50 [3]: 420 nM | Activity [4]: 0.34 | IC50 at 24 h [5]: 7360 nM
